Laboratory results as given in paper PMC9146163, “Novel Au Carbene Complexes as Promising Multi-Target Agents in Breast Cancer Treatment” (Pharmaceuticals, 2022).

What was measured:
Assay type in all cases: cell-based, human
[1] = test system: caspases 3/7, 8, and 9 in MDA-MB-231 cells; assay: Caspase-Glo assay, MDA-MB-231; settings: IC50 value, 24 h; vs vehicle
Description: (§1) The activities of caspases 3/7, 8, and 9 were measured by using the Caspase-Glo Assay according to the manufacturer’s guidelines (Caspase-Glo 3/7, 8, and 9 Assay Systems, Promega Corporation, Madison, WI, USA), as already described. The luminescence was detected in a plate-reading luminometer (Synergy H1 Hybrid Reader, BioTek) for 30 min to 3 h (λex/em = 490/570 nm). Results were reported as signal-to-noise ratio (background was determined from the culture medium without cells). The experiments were performed in triplicate.

[2] = test system: cytochrome c in MDA-MB-231 cells; assay: Mitochondria staining and cytochrome c detection, MDA-MB-231; settings: IC50 value, 24 h
Description: The MitoTracker Deep Red FM probe (MitoTracker Mitochondrion-Selective Probes, Invitrogen European Headquarters, Paisley, PA4 9RF, UK) was used for mitochondrial staining, as previously described. For immunofluorescence analysis, the cells were seeded and further processed, as reported by Iacopetta et al.. The primary antibodies used were: rabbit anti-β-Actin and vimentin (Santa Cruz Biotechnology, Dallas, TX, USA), mouse anti cytochrome c and NF-κB p65 (Abcam, Cambridge, UK), diluted 1:100 in bovine serum albumin (BSA) 2% overnight at 4 °C. The secondary antibodies were: Alexa Fluor® 488 conjugate goat-anti-rabbit and Alexa Fluor® 568 conjugate goat-anti-mouse (Thermo Fisher Scientific, MA, USA), diluted 1:500 and incubated for 2h at 37 °C. DAPI 0.2 μg/mL (Sigma Aldrich, Milan, Italy) was used for nuclei staining. […] All the images were acquired and processed using the LAS-X software.

[3] = test system: caspases 3/7, 8, and 9 in MCF-7 cells; assay: Caspase-Glo assay, MCF-7; settings: IC50 value, 24 h; vs vehicle
Description: as §1

Row | Structure (SMILES) | caspase-3 and -7 activity, MDA-MB-231 [1] | caspase-8 activity, MDA-MB-231 [1] | caspase-9 activity, MDA-MB-231 [1] | cytochrome c localization, MDA-MB-231 [2] | caspase-3 and -7 activity, MCF-7 [3] | caspase-8 activity, MCF-7 [3] | caspase-9 activity, MCF-7 [3]
1 | Cn1ccn(CC([O-])c2ccccc2)[c]1=[Au+]=[c]1n(C)ccn1CC([O-])c1ccccc1.[Cl-].[Na+].[Na+] (stereo not shown) [Compound 1] | clear increase | significant rise | no increase | cytochrome c is localized within mitochondria | – | – | –
2 | CC(=O)[O-].Cn1c(Cl)c(Cl)n(CC(O)c2ccccc2)[c]1=[Au+]=[c]1n(C)c(Cl)c(Cl)n1CC(O)c1ccccc1 (stereo not shown) [Compound 6, Bis [4,5-dichloro-(N-methyl, N’(2-hydroxy-2-phenyl-ethyl)imidazole-2-ylidine]gold(I)] acetate] | – | – | – | – | clear increase | significant rise | no increase
